Activity calls are given as the source filed them. The calls are words filed in the database; no cut-off is given here.

Common to all, as to format: protein assay
The target in assay [1] is T1, Glycoside hydrolase family 92 (BT_3963) (Bacteroides thetaiotaomicron) (UniProt Q8A0Q8).
T1 sequence (whole entry): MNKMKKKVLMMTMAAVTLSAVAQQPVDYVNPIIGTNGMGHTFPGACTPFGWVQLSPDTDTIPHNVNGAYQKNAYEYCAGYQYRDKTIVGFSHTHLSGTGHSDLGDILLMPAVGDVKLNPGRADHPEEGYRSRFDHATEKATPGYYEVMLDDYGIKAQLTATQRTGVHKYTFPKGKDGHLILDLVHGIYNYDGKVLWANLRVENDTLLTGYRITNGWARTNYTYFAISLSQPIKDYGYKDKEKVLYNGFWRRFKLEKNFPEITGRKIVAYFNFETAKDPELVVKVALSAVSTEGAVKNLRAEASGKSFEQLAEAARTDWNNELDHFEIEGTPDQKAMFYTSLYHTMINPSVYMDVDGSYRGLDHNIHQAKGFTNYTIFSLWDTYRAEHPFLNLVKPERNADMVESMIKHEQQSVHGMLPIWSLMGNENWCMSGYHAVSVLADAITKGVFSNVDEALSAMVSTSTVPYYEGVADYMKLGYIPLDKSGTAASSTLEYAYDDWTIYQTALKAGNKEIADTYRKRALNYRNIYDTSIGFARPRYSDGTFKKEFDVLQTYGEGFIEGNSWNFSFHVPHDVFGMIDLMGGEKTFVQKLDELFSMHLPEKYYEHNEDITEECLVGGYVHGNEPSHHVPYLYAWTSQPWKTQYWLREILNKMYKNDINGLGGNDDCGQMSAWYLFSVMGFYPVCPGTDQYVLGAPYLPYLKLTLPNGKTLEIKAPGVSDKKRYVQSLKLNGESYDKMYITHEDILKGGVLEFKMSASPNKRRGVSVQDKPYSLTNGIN
The assay is described as follows: Activity of Bacteroides thetaiotaomicron GH92 alpha-mannosidase GH92 alpha-mannosidase 3963 assessed as mannose release at 1 mM after 16 hrs by HPLC relative to untreated control after 16 hrs by HPLC.

Assay [2] has as its target T2, Alpha-1,2-mannosidase (BT_3990) (Bacteroides thetaiotaomicron) (UniProt Q8A0N1).
T2 sequence (whole entry): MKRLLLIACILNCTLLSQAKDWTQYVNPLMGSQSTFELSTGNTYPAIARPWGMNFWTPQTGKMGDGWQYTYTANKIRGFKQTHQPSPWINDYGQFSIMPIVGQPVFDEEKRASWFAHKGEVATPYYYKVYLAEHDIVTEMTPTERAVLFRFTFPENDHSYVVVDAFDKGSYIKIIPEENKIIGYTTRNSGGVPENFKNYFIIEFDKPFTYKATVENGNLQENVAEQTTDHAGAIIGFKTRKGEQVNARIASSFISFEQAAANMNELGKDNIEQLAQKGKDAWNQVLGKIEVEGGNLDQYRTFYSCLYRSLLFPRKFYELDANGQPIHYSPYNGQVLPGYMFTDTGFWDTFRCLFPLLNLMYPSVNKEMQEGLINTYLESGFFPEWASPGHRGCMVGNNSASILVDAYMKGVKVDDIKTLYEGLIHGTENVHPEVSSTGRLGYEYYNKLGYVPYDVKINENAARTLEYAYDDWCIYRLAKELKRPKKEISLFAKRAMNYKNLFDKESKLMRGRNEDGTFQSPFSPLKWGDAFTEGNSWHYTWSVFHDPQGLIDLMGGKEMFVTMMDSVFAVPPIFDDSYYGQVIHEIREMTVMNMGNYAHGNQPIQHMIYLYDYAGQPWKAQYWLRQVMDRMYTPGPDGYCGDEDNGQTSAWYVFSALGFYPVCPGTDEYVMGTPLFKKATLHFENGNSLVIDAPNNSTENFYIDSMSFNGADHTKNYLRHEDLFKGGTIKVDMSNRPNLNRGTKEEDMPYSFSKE
The assay is described as follows: Activity of Bacteroides thetaiotaomicron GH92 alpha-mannosidase GH92 alpha-mannosidase 3990 assessed as mannose release at 1 mM after 16 hrs by HPLC relative to untreated control after 16 hrs by HPLC.

The target of assay [3] is T3, Alpha-1,2-mannosidase, putative (BT_4073) (Bacteroides thetaiotaomicron) (UniProt Q8A0E8).
T3 sequence (whole entry): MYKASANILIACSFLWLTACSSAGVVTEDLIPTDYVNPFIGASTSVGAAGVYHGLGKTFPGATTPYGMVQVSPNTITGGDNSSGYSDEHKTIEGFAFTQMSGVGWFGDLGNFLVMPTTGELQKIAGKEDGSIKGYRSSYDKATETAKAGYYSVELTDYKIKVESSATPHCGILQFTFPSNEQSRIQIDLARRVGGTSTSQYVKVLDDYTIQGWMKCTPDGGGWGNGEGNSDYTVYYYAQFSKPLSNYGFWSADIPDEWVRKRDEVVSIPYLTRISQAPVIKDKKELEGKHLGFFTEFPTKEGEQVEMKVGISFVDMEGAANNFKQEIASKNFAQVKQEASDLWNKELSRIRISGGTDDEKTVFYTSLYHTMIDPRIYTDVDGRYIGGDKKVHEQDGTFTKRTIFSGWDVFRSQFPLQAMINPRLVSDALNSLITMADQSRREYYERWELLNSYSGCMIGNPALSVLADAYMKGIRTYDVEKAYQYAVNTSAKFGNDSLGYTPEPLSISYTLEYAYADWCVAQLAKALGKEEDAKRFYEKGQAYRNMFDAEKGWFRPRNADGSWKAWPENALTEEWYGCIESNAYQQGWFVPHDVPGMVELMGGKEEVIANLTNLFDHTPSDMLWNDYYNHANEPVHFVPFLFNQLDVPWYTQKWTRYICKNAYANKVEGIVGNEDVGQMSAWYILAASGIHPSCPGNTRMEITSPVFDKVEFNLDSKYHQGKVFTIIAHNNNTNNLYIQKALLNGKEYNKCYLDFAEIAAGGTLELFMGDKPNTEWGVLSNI
The assay is described as follows: Activity of Bacteroides thetaiotaomicron GH92 alpha-mannosidase GH92 alpha-mannosidase 4073 assessed as mannose release at 1 mM after 16 hrs by HPLC relative to untreated control after 16 hrs by HPLC.

Turning to `OC[C@H]1O[C@H](O[C@@H]2[C@H](O)[C@@H](O)O[C@H](CO)[C@H]2O)[C@@H](O)[C@@H](O)[C@@H]1O`, the outcome in assay [1] and in assay [3] was inactive. Besides, the Activity in assay [2] came out at 0.036%.

For the molecule `OC[C@H]1O[C@H](O[C@H]2[C@H](O)[C@H](O)[C@@H](O)O[C@@H]2CO)[C@@H](O)[C@@H](O)[C@@H]1O`, the outcome in assay [1] was inactive. For the same molecule, the Activity in assay [2] was 0.022%; in assay [3] it was 100%.

Take `OC[C@H]1O[C@H](O[C@H]2[C@@H](O)[C@H](O)[C@@H](CO)O[C@@H]2O)[C@@H](O)[C@@H](O)[C@@H]1O`: the outcome in assay [1] and in assay [3] was inactive. Also, the Activity in assay [2] is 100%.

On to `OC[C@H]1O[C@H](OC[C@H]2O[C@H](O)[C@@H](O)[C@@H](O)[C@@H]2O)[C@@H](O)[C@@H](O)[C@@H]1O`, for which the result in assay [1], in assay [2] and in assay [3] was inactive.

These data come from ChEMBL document CHEMBL1250451, “Mechanistic insights into a Ca2+-dependent family of alpha-mannosidases in a human gut symbiont” (Nat Chem Biol, 2010).
